Among the data in US6518290B1, “Substituted oxazoles and thiazoles derivatives as HPPAr alpha activators” (priority 1999, dated 2003) are EC50 and melting point values, retold here.

Series [1] addresses T1, human PPAR alpha (Homo sapiens, UniProt Q07869).
T1 construct: expressed in transfected cells; host or cells: CV-1 cells
T1 sequence (Q07869 239-466 limits assumed): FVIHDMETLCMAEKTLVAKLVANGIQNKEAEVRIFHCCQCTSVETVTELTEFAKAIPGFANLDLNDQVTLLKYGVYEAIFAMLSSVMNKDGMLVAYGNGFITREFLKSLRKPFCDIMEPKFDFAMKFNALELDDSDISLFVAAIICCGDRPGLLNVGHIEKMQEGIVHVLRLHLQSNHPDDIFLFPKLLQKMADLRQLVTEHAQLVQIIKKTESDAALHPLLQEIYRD
Put plainly: PPAR transient transfection (transactivation) assay in CV-1 cells, hPPAR alpha. The conditions noted are these: PPAR LBD-GAL4 chimera, SPAP reporter, 24 h with compound, read-out: human αEC50. The series is classed as cell-based. An excerpt: Compounds were screened for functional potency in transient transfection assays in CV-1 cells for their ability to activate the PPAR subtypes (transactivation assay). A previously established chimeric receptor system was utilized to allow comparison of the relative transcriptional activity of the receptor subtypes on the same target gene and to prevent endogenous receptor activation from complicating the interpretation of results. See, for example, Lehmann, J. M.; Moore, L. B.; Smith-Oliver, T. A.; Wilkison, W. O.; Willson, T. M.; Kliewer, S. A., An antidiabetic thiazolidinedione is a high affinity ligand for peroxisome proliferator-activated receptor γ (PPARγ), J. Biol. Chem., 1995, 270, 12953-6. The ligand binding domains for murine and human PPAR alpha, PPAR gamma, and PPAR delta were each fused to the yeast transcription factor GAL4 DNA binding domain. CV-1 cells were transiently transfected with expression vectors for the respective PPAR chimera along with a reporter construct containing five copies of the GAL4 DNA binding site driving expression of secreted placental alkaline phosphatase (SPAP) and β-galactosidase. After 16 h, the medium was exchanged to DME medium supplemented with 10% delipidated fetal calf serum and the test compound at the appropriate concentration. After an additional 24 h, cell extracts were prepared and assayed for alkaline phosphatase and β-galactosidase activity. […] Rosiglitazone (BRL 49653) was used as a positive control in the hPPAR gamma assay. The positive control in the hPPAR alpha assays was 2-(2-methyl-3-[3-{3-(4-cyclohexylamino)-[6-(4-fluorophenylpiperazin-1-yl)][1,3,5]triazin-2-ylamino}propyl]phenylthio)-2-methylpropionic acid. The positive control for PPAR delta assays was 2-{2-methyl-4-[({4-methyl-2-{trifluoromethyl)phenyl]-1,3-thiazol-5-yl}methyl)sulfanyl]phenoxy}acetic acid.

Series [2] addresses T2, human PPAR delta (Homo sapiens, UniProt Q03181).
T2 construct: expressed in transfected cells; host or cells: CV-1 cells
T2 sequence (Q03181 211-439 limits assumed): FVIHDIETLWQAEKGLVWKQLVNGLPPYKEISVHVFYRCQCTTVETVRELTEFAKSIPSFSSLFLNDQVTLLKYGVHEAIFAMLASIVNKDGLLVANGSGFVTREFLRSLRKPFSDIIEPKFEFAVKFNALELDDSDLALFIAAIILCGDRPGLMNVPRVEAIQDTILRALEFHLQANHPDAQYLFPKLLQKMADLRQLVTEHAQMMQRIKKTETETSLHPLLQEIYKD
Briefly: PPAR transient transfection (transactivation) assay in CV-1 cells, PPAR delta. The series is classed as cell-based. The conditions noted are these: PPAR LBD-GAL4 chimera, SPAP reporter, 24 h with compound, read-out: human δEC50. An excerpt:
(§1) Compounds were screened for functional potency in transient transfection assays in CV-1 cells for their ability to activate the PPAR subtypes (transactivation assay). A previously established chimeric receptor system was utilized to allow comparison of the relative transcriptional activity of the receptor subtypes on the same target gene and to prevent endogenous receptor activation from complicating the interpretation of results. See, for example, Lehmann, J. M.; Moore, L. B.; Smith-Oliver, T. A.; Wilkison, W. O.; Willson, T. M.; Kliewer, S. A., An antidiabetic thiazolidinedione is a high affinity ligand for peroxisome proliferator-activated receptor γ (PPARγ), J. Biol. Chem., 1995, 270, 12953-6. The ligand binding domains for murine and human PPAR alpha, PPAR gamma, and PPAR delta were each fused to the yeast transcription factor GAL4 DNA binding domain. CV-1 cells were transiently transfected with expression vectors for the respective PPAR chimera along with a reporter construct containing five copies of the GAL4 DNA binding site driving expression of secreted placental alkaline phosphatase (SPAP) and β-galactosidase. After 16 h, the medium was exchanged to DME medium supplemented with 10% delipidated fetal calf serum and the test compound at the appropriate concentration. After an additional 24 h, cell extracts were prepared and assayed for alkaline phosphatase and β-galactosidase activity. Alkaline phosphatase activity was corrected for transfection efficiency using the β-galactosidase activity as an internal standard (see, for example, Kliewer, S. A., et. al. Cell 83, 813-819 (1995)). Rosiglitazone (BRL 49653) was used as a positive control in the hPPAR gamma assay. The positive control in the hPPAR alpha assays was 2-(2-methyl-3-[3-{3-(4-cyclohexylamino)-[6-(4-fluorophenylpiperazin-1-yl)][1,3,5]triazin-2-ylamino}propyl]phenylthio)-2-methylpropionic acid. The positive control for PPAR delta assays was 2-{2-methyl-4-[({4-methyl-2-{trifluoromethyl)phenyl]-1,3-thiazol-5-yl}methyl)sulfanyl]phenoxy}acetic acid.

For series [3], the target named is T3, human PPAR gamma (Homo sapiens, UniProt P37231).
T3 construct: expressed in transfected cells; host or cells: CV-1 cells
T3 sequence (P37231 238-503 limits assumed): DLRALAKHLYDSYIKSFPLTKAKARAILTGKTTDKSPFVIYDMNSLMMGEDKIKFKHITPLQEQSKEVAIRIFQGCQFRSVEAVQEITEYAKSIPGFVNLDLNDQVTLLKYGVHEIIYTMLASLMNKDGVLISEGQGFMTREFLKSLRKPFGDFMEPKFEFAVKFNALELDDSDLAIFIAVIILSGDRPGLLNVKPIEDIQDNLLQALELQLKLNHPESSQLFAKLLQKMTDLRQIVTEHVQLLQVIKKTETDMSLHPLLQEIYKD
Put plainly: PPAR transient transfection (transactivation) assay in CV-1 cells, hPPAR gamma. The conditions noted are these: PPAR LBD-GAL4 chimera, SPAP reporter, 24 h with compound, read-out: human γEC50. The series is classed as cell-based.
Source text: as §1

Regarding `Cc1nc(-c2ccc(F)cc2)sc1C(=O)NCc1ccc(OC(C)(C)C(=O)O)cc1` [Example 31, 2-Methyl-2-[4-{[(4-methyl-2-[4-fluorophenyl]-thiazol-5-ylcarbonyl)amino]methyl}phenoxy]propionic Acid], the melting point was 159 °C. For the same compound, the EC50 in series [1] amounted to 44 nM. The EC50 in series [2] is no less than 10000 nM. The EC50 in series [3] is no less than 10000 nM.

For the compound `CC(C)(Oc1ccc(CNC(=O)c2sc(-c3ccc(C(F)(F)F)cc3)nc2C(F)(F)F)cc1)C(=O)O` [Example 41, 2-Methyl-2-[4-{[(4-trifluoromethyl-2-[4-trifluoromethylphenyl]-thiazol-5-ylcarbonyl)amino]methyl}phenoxy]propionic Acid], the values for the EC50 in series [1], in series [2] and in series [3] were 5 nM, no less than 10000 nM and 832 nM, respectively.

Regarding `Cc1nc(-c2ccc(C(F)(F)F)cc2)oc1C(=O)NCc1ccc(OC(C)(C)C(=O)O)cc1` [Example 45, 2-Methyl-2-[4-{[(4-methyl-2-[4-trifluoromethylphenyl]-oxazol-5-ylcarbonyl)amino]methyl}phenoxy]propionic Acid], the EC50 was 400 nM in series [1], 1640 nM in series [2] and no less than 10000 nM in series [3].

For the compound `COc1cc(CNC(=O)c2sc(-c3ccc(C(F)(F)F)cc3)nc2C)ccc1OC(C)(C)C(=O)O` [Example 49, 2-Methyl-2-[2-methoxy-4-{[(4-methyl-2-[4-trifluoromethylphenyl]-thiazol-5-ylcarbonyl)amino]methyl}phenoxy]propionic Acid], the values for the EC50 in series [1], in series [2] and in series [3] were 10 nM, 1000 nM and no less than 10000 nM, respectively.

As usually defined, the melting point is the temperature of the solid-liquid transition.
